The supplement of paper PMC5908809

Assays:
DERL-7 (IL-2 2.5 ng/mL) [1] = test: percent inhibition of viability; higher = more inhibition; settings: 72 h
KHYG-1 (IL-2 2.5 ng/mL) [2] = test: as above; settings: 72 h
[3] = system: normal primary NK cells, pool 2 (3 donors) (IL-2 2.5 ng/mL); test: as above; settings: 72 h
SNK-6 (IL-2 2.5 ng/mL) [4] = test: as above; settings: 72 h
NK-YS (IL-2 2.5 ng/mL) [5] = test: as above; settings: 72 h
IMC-1 (IL-2 20 ng/mL) [6] = test: as above; settings: 72 h
[7] = system: normal primary NK cells, pool 1 (3 donors), resting (IL-2 0 ng/mL); test: as above; settings: 72 h
YT (IL-2 2.5 ng/mL) [8] = test: as above; settings: 72 h
[9] = system: normal primary NK cells, pool 1 (3 donors) (IL-2 2.5 ng/mL); test: as above; settings: 72 h
KAI3 (IL-2 2.5 ng/mL) [10] = test: as above; settings: 72 h
[11] = system: normal primary NK cells, pool 3 (3 donors) (IL-2 2.5 ng/mL); test: as above; settings: 72 h
NK-92 (IL-2 2.5 ng/mL) [12] = test: as above; settings: 72 h
NKL (IL-2 2.5 ng/mL) [13] = test: as above; settings: 72 h
[14] = system: normal NK cells expanded with K562-aAPC; test: drug sensitivity score (DSS) (DSS units); higher = more sensitive; extreme values may be limits of the assay; settings: 72 h; IL-2 2.5 ng/mL
Experimental: (§1)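 Drug sensitivity and resistance testing on K562-aAPC-expanded normal NK cells: 5 concentrations (10-fold steps over a 10,000-fold range), 72 h at 37 °C, viability by CellTiter-Glo normalised to DMSO and benzethonium chloride controls; DSS from the fitted curve.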

DERL-7 (IL-2 2.5 ng/mL) [15] = test: as above; settings: 72 h
KHYG-1 (IL-2 2.5 ng/mL) [16] = test: as above; settings: 72 h
[17] = system: normal primary NK cells, pool 2 (3 donors) (IL-2 2.5 ng/mL); test: as above; settings: 72 h
SNK-6 (IL-2 2.5 ng/mL) [18] = test: as above; settings: 72 h
NK-YS (IL-2 2.5 ng/mL) [19] = test: as above; settings: 72 h
IMC-1 (IL-2 20 ng/mL) [20] = test: as above; settings: 72 h
[21] = system: normal primary NK cells, pool 1 (3 donors), resting (IL-2 0 ng/mL); test: as above; settings: 72 h
YT (IL-2 2.5 ng/mL) [22] = test: as above; settings: 72 h
[23] = system: normal primary NK cells, pool 1 (3 donors) (IL-2 2.5 ng/mL); test: as above; settings: 72 h
KAI3 (IL-2 2.5 ng/mL) [24] = test: as above; settings: 72 h
[25] = system: normal primary NK cells, pool 3 (3 donors) (IL-2 2.5 ng/mL); test: as above; settings: 72 h
NK-92 (IL-2 2.5 ng/mL) [26] = test: as above; settings: 72 h
NKL (IL-2 2.5 ng/mL) [27] = test: as above; settings: 72 h
[28] = system: normal NK cells expanded with K562-aAPC; test: percent inhibition of viability; higher = more inhibition; settings: 72 h, IL-2 2.5 ng/mL
Experimental: as §1

C#Cc1cccc(Nc2ncnc3cc4c(cc23)OCCOCCOCCO4)c1 [Icotinib] (max concentration tested 10000 nM)
percent inhibition of viability [%]
Settings | 1 nM | 10 nM | 100 nM | 1000 nM | 10000 nM
DERL-7 (IL-2 2.5 ng/mL) [1] | -3.69 | 4.28 | 2.21 | -3.13 | 21.1
IMC-1 (IL-2 20 ng/mL) [6] | -2.8 | -2.04 | 2.45 | 1.87 | 17.3
KAI3 (IL-2 2.5 ng/mL) [10] | 0.88 | -3.16 | 3.15 | -4.22 | 15.3
KHYG-1 (IL-2 2.5 ng/mL) [2] | 2.44 | 3.1 | 7.32 | 5.9 | 20.9
NK-92 (IL-2 2.5 ng/mL) [12] | -11.7 | -6.9 | 8.46 | 9.17 | 60.1
NK-YS (IL-2 2.5 ng/mL) [5] | 1.39 | -0.84 | 6.96 | 1.74 | 17.6
NKL (IL-2 2.5 ng/mL) [13] | -8.58 | 1.33 | -2.78 | -2.73 | 7.37
SNK-6 (IL-2 2.5 ng/mL) [4] | 8.75 | 4.17 | -5.78 | 8.65 | 12.1
YT (IL-2 2.5 ng/mL) [8] | -0.54 | 0.7 | 2.3 | -0.04 | 20.5
[3] | -5.53 | 5.07 | 5.9 | -0.93 | 18.9
[7] | 3.19 | -9.84 | 4.39 | -8.23 | 35.6
[9] | 2.64 | -2.92 | -2.29 | -5.75 | 8.93
[11] | -12.7 | -5.94 | 3.15 | -6.39 | -5.24
[28] | -2.8 | 5.15 | 5.26 | 7.7 | 24.2

Settings | drug sensitivity score
DERL-7 (IL-2 2.5 ng/mL) [15] | 0.52
IMC-1 (IL-2 20 ng/mL) [20] | 0.61
KAI3 (IL-2 2.5 ng/mL) [24] | 0.15
KHYG-1 (IL-2 2.5 ng/mL) [16] | 0.85
NK-92 (IL-2 2.5 ng/mL) [26] | 4.82
NK-YS (IL-2 2.5 ng/mL) [19] | 0.62
NKL (IL-2 2.5 ng/mL) [27] | 0
SNK-6 (IL-2 2.5 ng/mL) [18] | 0.39
YT (IL-2 2.5 ng/mL) [22] | 0.63
[14] | 1.38
[17] | 0.45
[21] | 1.28
[23] | 0
[25] | 0
